Reference: patent US20230346743A1, “COMBINATION CANCER THERAPIES” (The Board of Regents of the University of Oklahoma, priority 2018, published 2023)

Key:
[1] = tested on: Cervical Cancer; test: Dose reduction index at various fold effects in cervical cancer; assay type: cell-based, human; details: cell line not named
From the text: Combination Indices (CI's) were derived to determine the level of synergy using the Chow and Talalay method. […] The Dose Reduction Indices (DRIs) were derived to determine the level of reduction for one drug that could be allowed by addition of the second drug at various fold effects (Fas) of the combination treatment (Table 16).

[2] = tested on: MESOV human ovarian cancer cells; test: Tumor establishment after intraperitoneal injection of MESOV cells (secondary chemoprevention model); assay type: in vivo; details: nu/nu mice, MESOV i.p.
Description: Four-week-old female athymic nude mice (NCr-Foxn1^nu) were obtained from Taconic Biosciences under an approved Institutional Animal Care and Use Committee (IACUC) protocol. Mice were acclimatized for two weeks, fed with a standard diet and ear tagged during the acclimatization period. The timing to tumor development after intraperitoneal injection with various amounts of MESOV cells was determined in a pilot study prior. In the intervention experiment, 6-week-old mice were injected with 20 million MESOV human ovarian cancer cells in their intraperitoneal region. Drug treatment was initiated 4 weeks after the injection of cancer cells. Mice were randomized to four treatment groups before the start of treatment based on their body weight. There was no significant (one-way ANOVA, p >0.999) difference in body weight between groups at the start of treatment. Twelve mice were allocated to each group based on the power analysis performed while designing experiment. […] Controls were gavaged with Kolliphor HS15 (30% in water). […] (10 mg/kg) was dissolved in phosphate buffered saline and injected into the peritoneum of mice every other day. Initially SHetA2 dosing was administered every day for two weeks in SHetA2 alone and drug combination groups, and then switched to every other day for the next three weeks due to the stress caused to the mice by daily gavage. Oral gavaging was performed with sterile disposable plastic feeding tubes 20 ga × 38 mm (Instech Laboratories, Inc., Plymouth Meeting, PA, USA). Three mice in the drug combination group died after two weeks of drug treatment due to gavaging incidents. Body weights were recorded and animal health was monitored weekly. After the end of drug intervention period, all mice were euthanized by CO2 asphyxiation followed by exsanguination, their tumors and other vital organs were collected for further analysis. After measuring the total tumor weight, a portion of the tumors were snap frozen in liquid nitrogen and another portion was formalin fixed. The formalin fixed tissue samples were paraffin embedded, sectioned and stained with hematoxylin and eosins for histology studies. An experienced pathologist reviewed blinded histology slides for kidney and liver toxicity. Presence or absence of tumor at the end of the treatment period was used as the primary outcome measure. […] Two by two logistic regression was used to compare the four treatment groups (Untreated control, SHetA2, […] combination) in the study. Mice in the first 3 groups had complete data, while 3 mice in the combo group died early and had zero tumor weights. […]

[3] = tested on: p53; test: p53 cellular localization in hFTSECs; assay type: cell-based, human; details: 24 h
Description: Cytoplasmic and nuclear protein fractions were isolated from cultures using NE-PER Nuclear and Cytoplasmic Extraction Reagents (ThermoFisher, Waltham, MA, USA) and the Mitochondria/Cytosol Fractionation Kit (ThermoFisher, Waltham, MA, USA) and protein concentrations determined with BCA reagent (ThermoFisher, Waltham, MA, USA).
Proteins were extracted from cell cultures using M-PER mammalian protein extraction reagent (ThermoFisher, Waltham, MA, USA) and volumes corresponding to 30 µg determined with BCA reagent (ThermoFisher, Waltham, MA, USA) were electrophoresed into a SDS-PAGE gel and transferred to PVDF membranes. Membranes were blocked (5% dry skim milk powder in TBST buffer) for at least 1 h or overnight, washed thrice with TBST and then incubated with primary antibody: p53 DO-1, β-actin, histone H3, GAPDH (Santa Cruz Biotechnology, Dallas, TX, USA) and mortalin, Tom20, V5 tag antibodies, p21, PARP, SLC7A11, caspase 3 (Cell Signaling Technology, Danvers, MA, USA) for at least 1 h or overnight. After three washes, membranes were incubated with anti-mouse HRP conjugated (Santa Cruz Biotechnology, Dallas, TX, USA) or anti-Rabbit HRP conjugated (Cell Signaling Technology, Danvers, MA, USA) for 40 min. Membranes then were washed and developed with ECL reagents (BioRad, Hercules, CA, USA). Bands were imaged and quantified (ChemiDoc imaging system with Image Lab Software/BioRad). […]

CC1(C)CC(C)(C)c2cc(NC(=S)Nc3ccc([N+](=O)[O-])cc3)ccc2S1 [SHetA2]
SHetA2 Dose ([1]; Fold Effect (Fa) 0.05): 5.44 | SHetA2 Dose ([1]; Fold Effect (Fa) 0.75): 8.23 | SHetA2 Dose ([1]; Fold Effect (Fa) 0.90): 12.43 | SHetA2 Dose ([1]; Fold Effect (Fa) 0.95): 16.47 | OR for preventing tumor development (additive logistic regression model) [2]: 10.384 | Tumor-free rates ([2]; SHetA2 60 mg/kg gavage, PRIMA-1^MET 10 mg/kg i.p., treatment from day 28 for 38 days): 42% | p53 cellular localization [3]: minimal effects on p53 cellular localization
